Source: article PMC11316031 (EMBO Reports, 2024)

Key:
[1] = target: T1, Arp2 (subunit of the Arp2/3 complex) (Homo sapiens, UniProt P61158+P61160); assay: TIRF actin branching rate with GST-N-WASP-VCA-activated recombinant Arp2/[…]; also pyrene actin polymerisation; type: biochemical
T1 construct: gene ACTR2; recombinant human Arp2/3 iso-complex containing Arp3/ArpC1A/C5L; with Arp3 (ACTR3, P61158), within the Arp2/3 complex

[2] = target: T2, Arp3 (subunit of the Arp2/3 complex) (Homo sapiens, UniProt P61158); assay: as above; type: biochemical
T2 construct: gene ACTR3; recombinant human Arp2/3 iso-complex containing Arp3/ArpC1A/C5L; with Arp2/3 complex (Arp2, ArpC1A, ArpC2, ArpC3, ArpC4, ArpC5L)

SMILES	IC50 [1]	IC50 [2]
Cc1[nH]c2ccccc2c1CCNC(=O)c1ccccc1F [CK-666]	19.9 µM	
COc1ccc(N2C(=O)CSC2c2cccc(Br)c2)c(OC)c1 (centres unmarked) [CK-869]		0.86 µM
